Assay results from patent US9006450B2 (Boehringer Ingelheim International GmbH, priority 2010, dated 2015).

Molecular target: T1, human ACC2 (Homo sapiens, UniProt O00763)
T1 construct: made in house; host or cells: insect cells (baculoviral expression system)
Assay: ACC2 assay, spectrophotometric 384 well assay (NADH-linked, coupled lactate dehydrogenase/pyruvate kinase)
Type: biochemical
Conditions: ACC2 assay, hACC2 construct lacking 128 N-terminal amino acids, 25° C., 340 nm; read-out: IC50
Method in brief: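 ADP output tracked via pyruvate kinase/lactate dehydrogenase NADH oxidation, slope at 340 nm over 15 min, 25° C, with 500 μM ATP and 200 μM each acetyl-CoA and NADH. Enzyme: insect-cell-expressed human ACC2, N-terminal 128 residues deleted; pH 7.5 Tris with citrate, KHCO3. IC50 from four-parameter regression versus vehicle and no-acetyl-CoA controls.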

T1 sequence (O00763 129-2458 limits assumed): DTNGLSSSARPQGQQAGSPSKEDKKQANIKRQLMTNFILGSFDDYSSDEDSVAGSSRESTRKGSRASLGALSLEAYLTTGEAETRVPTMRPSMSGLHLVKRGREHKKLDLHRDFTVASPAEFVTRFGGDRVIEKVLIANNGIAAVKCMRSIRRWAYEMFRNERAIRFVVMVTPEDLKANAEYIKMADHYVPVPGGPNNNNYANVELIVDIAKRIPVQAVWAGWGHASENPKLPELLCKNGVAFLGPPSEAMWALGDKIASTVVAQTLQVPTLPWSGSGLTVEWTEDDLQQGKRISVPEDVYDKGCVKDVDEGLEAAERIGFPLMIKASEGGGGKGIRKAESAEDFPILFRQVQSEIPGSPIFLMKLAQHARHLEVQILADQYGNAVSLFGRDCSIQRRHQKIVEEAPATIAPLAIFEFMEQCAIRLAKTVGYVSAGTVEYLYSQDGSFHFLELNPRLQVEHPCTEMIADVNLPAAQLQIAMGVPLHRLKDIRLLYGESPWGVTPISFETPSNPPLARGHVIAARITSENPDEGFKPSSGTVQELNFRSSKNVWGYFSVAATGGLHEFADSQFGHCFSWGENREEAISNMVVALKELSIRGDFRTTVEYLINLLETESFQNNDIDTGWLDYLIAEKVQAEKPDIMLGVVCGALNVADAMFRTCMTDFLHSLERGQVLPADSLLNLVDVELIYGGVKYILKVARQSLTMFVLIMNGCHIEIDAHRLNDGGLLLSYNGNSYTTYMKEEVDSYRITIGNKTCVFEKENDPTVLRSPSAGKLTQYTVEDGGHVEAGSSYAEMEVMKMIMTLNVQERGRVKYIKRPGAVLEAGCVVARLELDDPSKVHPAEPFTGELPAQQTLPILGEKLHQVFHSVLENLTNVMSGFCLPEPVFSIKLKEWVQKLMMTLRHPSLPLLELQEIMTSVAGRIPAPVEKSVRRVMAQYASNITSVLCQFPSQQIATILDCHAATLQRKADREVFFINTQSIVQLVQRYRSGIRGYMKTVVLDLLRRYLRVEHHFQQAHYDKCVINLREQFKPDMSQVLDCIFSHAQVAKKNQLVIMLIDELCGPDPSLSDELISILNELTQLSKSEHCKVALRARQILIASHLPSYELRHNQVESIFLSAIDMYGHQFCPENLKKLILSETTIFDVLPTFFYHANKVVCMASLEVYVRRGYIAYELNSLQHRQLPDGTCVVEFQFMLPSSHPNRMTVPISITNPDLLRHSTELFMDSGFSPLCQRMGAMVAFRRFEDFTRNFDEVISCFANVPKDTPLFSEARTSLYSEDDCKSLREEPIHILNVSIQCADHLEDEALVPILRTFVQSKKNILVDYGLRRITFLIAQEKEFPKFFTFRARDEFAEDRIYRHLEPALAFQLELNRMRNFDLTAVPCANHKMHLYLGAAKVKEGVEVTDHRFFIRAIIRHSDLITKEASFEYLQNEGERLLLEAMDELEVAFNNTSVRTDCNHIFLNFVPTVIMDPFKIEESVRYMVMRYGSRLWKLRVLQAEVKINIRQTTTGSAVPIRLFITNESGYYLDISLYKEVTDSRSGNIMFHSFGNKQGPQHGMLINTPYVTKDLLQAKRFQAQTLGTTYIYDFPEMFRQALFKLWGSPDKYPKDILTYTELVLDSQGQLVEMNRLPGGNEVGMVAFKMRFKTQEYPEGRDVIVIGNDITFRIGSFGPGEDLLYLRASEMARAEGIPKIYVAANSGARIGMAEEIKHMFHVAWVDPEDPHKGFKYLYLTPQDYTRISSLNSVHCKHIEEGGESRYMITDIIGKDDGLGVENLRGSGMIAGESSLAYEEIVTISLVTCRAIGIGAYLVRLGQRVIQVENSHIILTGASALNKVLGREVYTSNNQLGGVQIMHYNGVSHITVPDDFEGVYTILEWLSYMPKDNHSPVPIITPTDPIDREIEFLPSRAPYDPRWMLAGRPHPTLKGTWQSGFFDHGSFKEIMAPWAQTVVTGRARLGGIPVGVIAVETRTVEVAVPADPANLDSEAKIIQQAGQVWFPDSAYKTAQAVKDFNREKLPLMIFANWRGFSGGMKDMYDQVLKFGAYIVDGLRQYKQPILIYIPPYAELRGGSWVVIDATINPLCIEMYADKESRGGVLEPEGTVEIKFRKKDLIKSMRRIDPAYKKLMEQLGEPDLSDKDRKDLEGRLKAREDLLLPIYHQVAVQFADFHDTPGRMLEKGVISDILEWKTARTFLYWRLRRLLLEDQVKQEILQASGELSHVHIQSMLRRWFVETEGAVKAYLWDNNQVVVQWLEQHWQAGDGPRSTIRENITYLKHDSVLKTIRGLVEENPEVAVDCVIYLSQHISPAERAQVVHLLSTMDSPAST

IC50 | Structure (SMILES)
40 nM | CC(=O)N[C@@H](C)c1ccc(C2CCN(c3ncc(-c4cccc(C)c4)cn3)CC2)cc1 [Example 10.7]
200 nM | CCCN(C)c1nccc(N2CCC(c3ccc([C@H](C)NC(C)=O)cc3)CC2)n1 [Example 11.69]
13200 nM | CC(=O)N[C@@H](C)c1ccc(C2CCN(c3ncc(C(=O)N4[C@@H]5CC[C@H]4C[C@@H](O)C5)cn3)CC2)cc1 [Example 18.36]
130 nM | CCOc1ccc(N2CCC(c3ccc([C@H](C)NC(C)=O)cc3)CC2)cc1 [Example 1.1, (S)—N-(1-{4-[1-(4-Ethoxy-phenyl)-piperidin-4-yl]-phenyl}-ethyl)-acetamide]
15600 nM | CC(=O)N[C@@H](C)c1ccc(C2CCN(c3ccnc(NC4CCOCC4)n3)CC2)cc1 [Example 11.73]
600 nM | CC(=O)N[C@@H](C)c1ccc(C2CCN(c3ccc(OC4COC4)cc3)CC2)cc1 [Example 8.9]
330 nM | COc1cc(N2CCC(c3ccc([C@H](C)NC(C)=O)cc3)CC2)ccn1 [Example 3.2]
2600 nM | CC(=O)N[C@@H](C)c1ccc(C2CCN(c3ccc(C#N)cn3)CC2)cc1 [Example 4.5]
420 nM | CCCOc1ccnc(N2CCC(c3ccc([C@H](C)NC(C)=O)cc3)CC2)c1 [Example 5.48]
200 nM | CC(=O)N[C@@H](C)c1ccc(C2CCN(c3ccnc(OCc4ccccc4)c3)CC2)cc1 [Example 15.3]
23700 nM | CC(=O)N[C@@H](C)c1ccc(C2CCN(c3ncc(C(=O)NCC4CCN(c5ccccc5)C4)cn3)CC2)cc1 (some centres unmarked) [Example 18.67]
230 nM | CC(=O)N[C@@H](C)c1ccc(C2CCN(c3ccnc(N(C)CC4CC4)n3)CC2)cc1 [Example 11.90]
460 nM | CCOc1cnc(N2CCC(c3ccc([C@H](C)NC(C)=O)cc3)CC2)nc1 [Example 4.50]
1500 nM | CC(=O)N[C@@H](C)c1ccc(C2CCN(c3ncc(-c4ccc(OCC5CC5)nc4)cn3)CC2)cc1 [Example 10.51]
530 nM | CC(=O)N[C@@H](C)c1ccc(C2CCN(c3ncc(C(=O)N4CC5CCCC5C4)cn3)CC2)cc1 (some centres unmarked) [Example 18.20]
330 nM | COc1cc(-c2cnc(N3CCC(c4ccc([C@H](C)NC(C)=O)cc4)CC3)nc2)ccc1C [Example 10.65]
8900 nM | CNC(=O)CNC(=O)c1cnc(N2CCC(c3ccc([C@H](C)NC(C)=O)cc3)CC2)nc1 [Example 18.72]
8800 nM | COCCNC(=O)c1cnc(N2CCC(c3ccc([C@H](C)NC(C)=O)cc3)CC2)nc1 [Example 18.55]
17200 nM | CC(=O)N[C@@H](C)c1ccc(C2CCN(c3ncc(C(=O)NCC(N)=O)cn3)CC2)cc1 [Example 18.45]
3800 nM | COCCOc1cc(N2CCC(c3ccc([C@H](C)NC(C)=O)cc3)CC2)ncn1 [Example 11.29]
530 nM | CCc1cnc(N2CCC(c3ccc([C@H](C)NC(C)=O)cc3)CC2)nc1 [Example 4.42]
240 nM | COc1ccc(-c2cnc(N3CCC(c4ccc([C@H](C)NC(C)=O)cc4)CC3)nc2)cc1Cl [Example 10.57]
490 nM | CC(=O)N[C@@H](C)c1ccc(C2CCN(c3ccnc(OC4CCCC4)n3)CC2)cc1 [Example 11.8]
2200 nM | CC(=O)N[C@@H](C)c1ccc(C2CCN(c3ccc(C(C)(C)C)nc3)CC2)cc1 [Example 15.12]

IC50 | Structure (SMILES)
4500 nM | CC(=O)N[C@@H](C)c1ccc(C2CCN(c3ccc(Oc4cncnc4)nc3)CC2)cc1 [Example 1.110]
150 nM | CC(=O)N[C@@H](C)c1ccc(C2CCN(c3ncc(-c4cccc5cc[nH]c45)cn3)CC2)cc1 [Example 10.118]
1600 nM | CC(=O)N[C@@H](C)c1ccc(C2CCN(c3ccc(OCC4CCO4)c(F)c3)CC2)cc1 (some centres unmarked) [Example 8.48]
170 nM | CCOc1ccc(N2CCC(c3ccc([C@H](C)NC(C)=O)cc3)CC2)c(C#N)c1 [Example 13.3]
1100 nM | CC(=O)N[C@@H](C)c1ccc(C2CCN(c3ncc(C(=O)Nc4ccc5c(c4)OCO5)cn3)CC2)cc1 [Example 18.18]
1200 nM | CC(=O)N[C@@H](C)c1ccc(C2CCN(c3ncc(C(=O)N(C)c4ccccc4)cn3)CC2)cc1 [Example 18.89]
3100 nM | COC1CN(C(=O)c2cnc(N3CCC(c4ccc([C@H](C)NC(C)=O)cc4)CC3)nc2)C1 [Example 18.23]
18300 nM | CCN1CCCC1CNC(=O)c1cnc(N2CCC(c3ccc([C@H](C)NC(C)=O)cc3)CC2)nc1 (some centres unmarked) [Example 18.44]
8100 nM | CCOc1ccc(N2CCC(c3ccc([C@H](C)NC(=O)C4CC4)cc3)CC2)c(OCC)c1 [Example 1.121]
180 nM | CC(=O)N[C@@H](C)c1ccc(C2CCN(c3ncc(C(=O)Nc4ccc(F)cc4)cn3)CC2)cc1 [Example 18.3]
240 nM | C[C@H](NC(=O)C1CC1)c1ccc(C2CCN(c3ncc(-c4ccc(C#N)cc4)cn3)CC2)cc1 [Example 10.102]
1000 nM | CCCNc1ccc(N2CCC(c3ccc([C@H](C)NC(C)=O)cc3)CC2)cc1 [Example 24.1, (S)—N-(1-{4-[1-(4-(Propylamino)phenyl)-piperidin-4-yl]-phenyl}-ethyl)-acetamide]
230 nM | CC(=O)N[C@@H](C)c1ccc(C2CCN(c3ccnc(OC4CCC4)n3)CC2)cc1 [Example 11.110]
2200 nM | CC(=O)N[C@@H](C)c1ccc(C2CCN(c3ncc(C(=O)N4CCOCC4)cn3)CC2)cc1 [Example 18.94]
300 nM | CCC(C)Oc1ccc(N2CCC(c3ccc([C@H](C)NC(C)=O)cc3)CC2)cc1Cl (some centres unmarked) [Example 8.55]
150 nM | CC(=O)N[C@@H](C)c1ccc(C2CCN(c3ccc(OCC(C)C)c(F)c3)CC2)cc1 [Example 8.28]
350 nM | COc1cc(C)c(-c2cnc(N3CCC(c4ccc([C@H](C)NC(C)=O)cc4)CC3)nc2)c(C)c1 [Example 10.204]
530 nM | CCOc1ccc(N2CCC(c3ccc([C@H](C)NC(=O)N(C)CCc4cn[nH]c4)cc3)CC2)cc1 [Example 14.61]
13300 nM | CCCn1ccc(N2CCC(c3ccc([C@H](C)NC(C)=O)cc3)CC2)cc1=O [Example 3.9]
110 nM | CCCOc1ccc(N2CCC(c3ccc([C@H](C)NC(=O)C4CC4)cc3)CC2)c(C#N)c1 [Example 1.115]
60 nM | CC(=O)N[C@@H](C)c1ccc(C2CCN(c3ncc4nc(-c5ccc(C)s5)oc4n3)CC2)cc1 [Example 5.6]
3700 nM | CC(=O)N[C@@H](C)c1ccc(C2CCN(c3cc(NCc4ccccc4)ncn3)CC2)cc1 [Example 11.55]
15800 nM | CC(=O)N[C@@H](C)c1ccc(C2CCN(c3ncc(C(=O)NCCC(=O)N(C)C)cn3)CC2)cc1 [Example 18.66]
9000 nM | CC(=O)N[C@@H](C)c1ccc(C2CCN(c3ccnc(C)n3)CC2)cc1 [Example 5.26]

IC50 | Structure (SMILES)
330 nM | CCOc1cccc(N2CCC(c3ccc([C@H](C)NC(C)=O)cc3)CC2)n1 [Example 4.27]
1900 nM | CC(=O)N[C@@H](C)c1ccc(C2CCN(c3ncc(-c4cnc(C#N)nc4)cn3)CC2)cc1 [Example 10.83]
470 nM | CCOc1ccc(N2CCC(c3ccc([C@H](C)NC(=O)NC)cc3)CC2)cc1 [Example 14.1, (S)-1-(1-{4-[1-(4-Ethoxy-phenyl)-piperidin-4-yl]-phenyl}-ethyl)-3-methyl-urea]
530 nM | C=CCCOc1cccc(N2CCC(c3ccc([C@H](C)NC(C)=O)cc3)CC2)c1 [Example 9.10]
430 nM | CC(=O)N[C@@H](C)c1ccc(C2CCN(c3ccnc(OCC(C)C)n3)CC2)cc1 [Example 11.16]
260 nM | CC(=O)N[C@@H](C)c1ccc(C2CCN(c3ncc(C(=O)Nc4ccccc4F)cn3)CC2)cc1 [Example 18.6]
140 nM | CCCC(C)Oc1ccc(N2CCC(c3ccc([C@H](C)NC(C)=O)cc3)CC2)cc1 (some centres unmarked) [Example 9.19]
4000 nM | CC(=O)N[C@@H](C)c1ccc(C2CCN(c3cc(NCc4ccoc4)ncn3)CC2)cc1 [Example 11.101]
1800 nM | CCC(=O)N[C@@H](C)c1ccc(C2CCN(c3ncc(C4CC4)cn3)CC2)cc1 [Example 4.54]
710 nM | CC(=O)N[C@@H](C)c1ccc(C2CCN(c3ccc(OC(C)C)c(Cl)c3)CC2)cc1 [Example 8.25]
8700 nM | CC(=O)N[C@@H](C)c1ccc(C2CCN(c3ncc(C(=O)NCC4OCCO4)cn3)CC2)cc1 [Example 18.83]
130 nM | CCCOc1ccc(N2CCC(c3ccc([C@H](C)NC(C)=O)cc3)CC2)nc1 [Example 5.3]
110 nM | CCC(=O)N[C@@H](C)c1ccc(C2CCN(c3ccc(OC4CC4)cc3)CC2)cc1 [Example 1.151]
380 nM | CC(=O)N[C@@H](C)c1ccc(C2CCN(c3ccnc(OCC4CCCC4)n3)CC2)cc1 [Example 11.9]
100 nM | CC(=O)N[C@@H](C)c1ccc(C2CCN(c3ncc(-c4ccc(C)cc4)cn3)CC2)cc1 [Example 10.44]
160 nM | C=CCOc1ccc(N2CCC(c3ccc([C@H](C)NC(C)=O)cc3)CC2)cc1 [Example 9.22]
380 nM | C[C@H](NC(=O)N(C)C)c1ccc(C2CCN(c3ncc(-c4ccc5c(c4)CCO5)cn3)CC2)cc1 [Example 10.99]
3100 nM | CC(=O)N[C@@H](C)c1ccc(C2CCN(c3ncc(C(=O)N4Cc5cccnc5C4)cn3)CC2)cc1 [Example 18.38]
7300 nM | CC(=O)N[C@@H](C)c1ccc(C2CCN(c3ncc(C(=O)N[C@H]4CCOC4)cn3)CC2)cc1 [Example 18.35]
760 nM | CCC(C)Oc1ccc(N2CCC(c3ccc([C@H](C)NC(C)=O)cc3)CC2)cc1C (some centres unmarked) [Example 8.51]
320 nM | CC(=O)N[C@@H](C)c1ccc(C2CCN(c3ncc(-c4cscc4C)cn3)CC2)cc1 [Example 10.56]
1300 nM | CCOc1ccc(N2CCC(c3ccc([C@H](C)NC(=O)c4ccno4)cc3)CC2)cc1 [Example 6.12]

Same assay, conditions: IC50, ACC2 assay, hACC2 construct lacking 128 N-terminal amino acids, 25° C., 340 nm

Structure (SMILES) | IC50
CCOc1ccc(N2CCC(c3ccc([C@H](C)NC(=O)CF)cc3)CC2)cc1 [Example 6.14] | 190 nM
